The source of these data is ChEMBL document CHEMBL2074311, “ATP-dependent para-aminohippurate transport by apical multidrug resistance protein MRP2” (Kidney Int, 2000).

Data set [1] has as its target T1, ATP-binding cassette sub-family C member 2 (Homo sapiens, UniProt Q92887). In words: TP_TRANSPORTER: uptake in membrane vesicles from MRP2-expressing HEK cells. Type of data set: functional, cell membranes, Membrane vesicle. The settings on record: hek293.
In data set [2] the target is T1, ATP-binding cassette sub-family C member 2. In words: TP_TRANSPORTER: inhibition of PAH uptake (PAH: 0.1uM) in membrane vesicles from MRP2-expressing HEK cells. In kind it is functional, cell membranes, HEK293, Membrane vesicle.

SMILES strings stand for the structures. pIC50: −log10 of the molar value.

T1 sequence (Q92887 whole entry): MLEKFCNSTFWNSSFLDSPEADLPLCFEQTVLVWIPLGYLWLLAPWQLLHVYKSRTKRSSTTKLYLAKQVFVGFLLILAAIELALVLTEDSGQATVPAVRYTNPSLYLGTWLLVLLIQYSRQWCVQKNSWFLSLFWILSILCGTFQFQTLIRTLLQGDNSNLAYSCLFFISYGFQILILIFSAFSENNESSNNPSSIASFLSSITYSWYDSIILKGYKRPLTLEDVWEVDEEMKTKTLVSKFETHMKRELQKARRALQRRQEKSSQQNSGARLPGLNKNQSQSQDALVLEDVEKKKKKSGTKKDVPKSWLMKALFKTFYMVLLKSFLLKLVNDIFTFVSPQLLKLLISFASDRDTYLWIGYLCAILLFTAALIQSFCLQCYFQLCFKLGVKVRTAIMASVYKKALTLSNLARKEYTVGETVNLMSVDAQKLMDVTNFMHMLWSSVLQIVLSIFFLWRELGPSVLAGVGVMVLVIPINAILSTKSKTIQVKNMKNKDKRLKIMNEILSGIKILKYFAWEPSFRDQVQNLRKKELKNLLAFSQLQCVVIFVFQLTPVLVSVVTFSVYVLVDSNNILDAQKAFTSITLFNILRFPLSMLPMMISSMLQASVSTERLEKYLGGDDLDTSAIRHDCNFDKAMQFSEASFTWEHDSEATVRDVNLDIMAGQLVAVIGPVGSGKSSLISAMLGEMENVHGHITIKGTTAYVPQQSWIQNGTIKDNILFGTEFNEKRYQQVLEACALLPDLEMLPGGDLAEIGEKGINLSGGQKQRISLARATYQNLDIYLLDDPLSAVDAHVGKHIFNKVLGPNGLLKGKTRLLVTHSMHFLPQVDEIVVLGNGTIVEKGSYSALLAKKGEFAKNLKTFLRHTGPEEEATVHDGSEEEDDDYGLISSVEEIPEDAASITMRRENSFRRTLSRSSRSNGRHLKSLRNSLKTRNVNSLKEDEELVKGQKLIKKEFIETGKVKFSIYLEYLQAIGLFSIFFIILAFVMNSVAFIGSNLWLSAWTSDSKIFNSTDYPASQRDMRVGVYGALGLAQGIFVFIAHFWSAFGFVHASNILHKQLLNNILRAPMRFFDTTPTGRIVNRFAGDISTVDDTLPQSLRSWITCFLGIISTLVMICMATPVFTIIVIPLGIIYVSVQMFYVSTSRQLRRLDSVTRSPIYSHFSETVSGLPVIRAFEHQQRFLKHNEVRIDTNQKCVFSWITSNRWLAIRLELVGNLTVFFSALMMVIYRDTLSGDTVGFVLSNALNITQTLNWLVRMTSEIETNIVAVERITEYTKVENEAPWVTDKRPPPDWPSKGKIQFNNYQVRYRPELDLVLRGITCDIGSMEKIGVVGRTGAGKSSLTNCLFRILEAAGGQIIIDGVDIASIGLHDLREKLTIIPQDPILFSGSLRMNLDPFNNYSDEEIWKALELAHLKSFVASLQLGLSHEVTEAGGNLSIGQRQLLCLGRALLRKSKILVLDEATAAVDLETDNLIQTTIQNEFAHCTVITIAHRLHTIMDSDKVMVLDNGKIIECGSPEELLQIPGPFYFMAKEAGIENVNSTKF

As for `C[C@@H]1Cc2c(Cl)cc(C(=O)N[C@@H](Cc3ccccc3)C(=O)O)c(O)c2C(=O)O1` [3R14S-OCHRATOXIN A], the Activity result in data set [1] was “substrate [+]”. Also, the pIC50 in data set [2] is 4.24.
On to `CCCCC/C=C\C\C=C/C=C/C=C/[C@@H](SC[C@@H](NC(=O)CC[C@H](N)C(=O)O)C(=O)NCC(=O)O)[C@@H](O)CCCC(=O)O` [LEUKOTRIEN C4], for which the pIC50 in data set [2] is 5.48.
Turning to `CN(C)C(=O)CCSC(SCCC(=O)O)c1cccc(/C=C/c2ccc3ccc(Cl)cc3n2)c1` (centres undefined) [MK-571], the pIC50 in data set [2] was 5.40.

What is called pIC50 is −log10 of the IC50, conventionally taken in molar units.
